For 30 compounds, inhibition results are on record in patent US20140243334A1, “SUBSTITUTED HYDOXAMIC ACIDS AND USES THEREOF” (Millennium Pharmaceuticals, Inc., priority 2010, published 2014).

The target in the experiment is T1, purified human HDAC6 (Homo sapiens, UniProt Q9UBN7).
T1 construct: purchased BPS Bioscience 5006
T1 sequence (Q9UBN7 1-1215): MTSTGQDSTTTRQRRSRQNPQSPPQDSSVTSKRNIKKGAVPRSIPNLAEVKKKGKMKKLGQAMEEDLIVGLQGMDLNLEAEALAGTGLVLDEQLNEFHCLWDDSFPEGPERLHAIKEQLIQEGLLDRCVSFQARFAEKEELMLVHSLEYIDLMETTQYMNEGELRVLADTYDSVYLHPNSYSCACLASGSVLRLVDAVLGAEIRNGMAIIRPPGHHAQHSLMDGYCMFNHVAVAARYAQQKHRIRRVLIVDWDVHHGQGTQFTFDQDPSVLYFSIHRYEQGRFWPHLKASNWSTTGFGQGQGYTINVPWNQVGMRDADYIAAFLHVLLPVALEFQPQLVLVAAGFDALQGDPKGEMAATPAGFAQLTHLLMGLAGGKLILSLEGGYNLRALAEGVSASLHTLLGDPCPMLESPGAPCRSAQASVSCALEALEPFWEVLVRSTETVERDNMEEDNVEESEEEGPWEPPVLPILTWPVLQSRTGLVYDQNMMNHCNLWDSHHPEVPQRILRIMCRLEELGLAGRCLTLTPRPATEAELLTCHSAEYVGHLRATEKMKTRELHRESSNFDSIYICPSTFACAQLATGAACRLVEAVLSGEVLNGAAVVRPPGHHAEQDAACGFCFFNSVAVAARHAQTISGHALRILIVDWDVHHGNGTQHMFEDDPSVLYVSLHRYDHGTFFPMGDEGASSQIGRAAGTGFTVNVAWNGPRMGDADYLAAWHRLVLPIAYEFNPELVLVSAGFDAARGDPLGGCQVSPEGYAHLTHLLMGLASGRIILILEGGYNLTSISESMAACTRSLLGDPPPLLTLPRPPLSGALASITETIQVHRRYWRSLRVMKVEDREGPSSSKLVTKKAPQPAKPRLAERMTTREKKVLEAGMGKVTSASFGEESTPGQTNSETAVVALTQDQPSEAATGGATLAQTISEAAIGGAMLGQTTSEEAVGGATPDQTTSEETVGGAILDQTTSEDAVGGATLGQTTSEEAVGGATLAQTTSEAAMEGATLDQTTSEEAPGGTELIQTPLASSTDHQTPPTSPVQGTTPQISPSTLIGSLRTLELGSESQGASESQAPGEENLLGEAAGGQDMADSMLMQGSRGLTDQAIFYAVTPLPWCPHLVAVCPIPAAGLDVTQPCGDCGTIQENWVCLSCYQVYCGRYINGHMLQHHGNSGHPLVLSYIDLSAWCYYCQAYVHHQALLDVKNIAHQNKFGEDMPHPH
Kind of experiment: HDAC6 Enzyme Assay. The conditions noted are these: HDAC6 inhibition at a compound concentration of 0.412 μM; read-out: Percent Inhibition at 0.412 μM. The class given is biochemical. As for the experimental part:
To measure the inhibition of HDAC6 activity, purified human HDAC6 (BPS Bioscience; Cat. No. 5006) is incubated with substrate Ac-Arg-Gly-Lys(Ac)-AMC peptide (Bachem Biosciences; Cat. No. I-1925) for 1 hour at 30° C. in the presence of test compounds or vehicle DMSO control. The reaction is stopped with the HDAC inhibitor trichostatin A (Sigma; Cat. No. T8552) and the amount of Arg-Gly-Lys-AMC generated is quantitated by digestion with trypsin (Sigma; Cat. No. T1426) and subsequent measurement of the amount of AMC released using a fluorescent plate reader (Pherastar; BMG Technologies) set at Ex 340 nm and Em 460 nm. Concentration response curves are generated by calculating the fluorescence increase in test compound-treated samples relative to DMSO-treated controls, and enzyme inhibition (IC50) values are determined from those curves.
As to `COc1ccc2c(c1)CC(C(=O)NO)CC2` (stereo not drawn) [Compound I-1, N-hydroxy-7-methoxy-1,2,3,4-tetrahydronaphthalene-2-carboxamide], the inhibition (commonly the change of the read-out against control, counted positive when it falls) at 0.412 µM came to 8%.

`O=C(Nc1cc(Oc2ccc3c(c2)C[C@@H](C(=O)NO)CC3)ccn1)C1CC1` [Compound I-2, (2S)-7-({2-[(cyclopropylcarbonyl)amino]pyridin-4-yl}oxy)-N-hydroxy-1,2,3,4-tetrahydronaphthalene-2-carboxamide]: the inhibition at 0.412 µM worked out at 90%.

With `O=C(NO)C1CCc2ccccc2C1` (stereo not drawn) [Compound I-3, N-hydroxy-1,2,3,4-tetrahydronaphthalene-2-carboxamide], the inhibition at 0.412 µM came to 33%.

For `O=C1CCc2c(Oc3ccc4c(c3)C[C@@H](C(=O)NO)CC4)ccnc2N1` [Compound I-4, (2S)—N-hydroxy-7-[(7-oxo-5,6,7,8-tetrahydro-1,8-naphthyridin-4-yl)oxy]-1,2,3,4-tetrahydronaphthalene-2-carboxamide], the inhibition at 0.412 µM came to 85%.

On to `O=C(NO)C1CCc2ccc(OCc3ccncc3)cc2C1` (stereo not drawn) [Compound I-5, N-hydroxy-7-(pyridin-4-ylmethoxy)-1,2,3,4-tetrahydronaphthalene-2-carboxamide], for which the inhibition at 0.412 µM came out at 58%.

Regarding `O=C(NO)C1CCc2ccc(OCc3ccccc3)cc2C1` (stereo not drawn) [Compound I-6, 7-(benzyloxy)-N-hydroxy-1,2,3,4-tetrahydronaphthalene-2-carboxamide], the inhibition at 0.412 µM came out at 53%.

On to `CC(C)COc1ccc2c(c1)CC(C(=O)NO)CC2` (stereo not drawn) [Compound I-7, N-hydroxy-7-isobutoxy-1,2,3,4-tetrahydronaphthalene-2-carboxamide], for which the inhibition at 0.412 µM came to 57%.

As to `O=C(NO)C1CCc2ccc(Oc3ccccc3)cc2C1` (stereo not drawn) [Compound I-8, N-hydroxy-7-phenoxy-1,2,3,4-tetrahydronaphthalene-2-carboxamide], the inhibition at 0.412 µM amounted to 73%.

Take `O=C(NO)C1CCc2ccc(Oc3cccc(Cl)c3)cc2C1` (stereo not drawn) [Compound I-9, 7-(3-chlorophenoxy)-N-hydroxy-1,2,3,4-tetrahydronaphthalene-2-carboxamide]: the inhibition at 0.412 µM was 74%.

Take `COc1ccc2c(c1)CCC(C(=O)NO)C2` (stereo not drawn) [Compound I-10, N-hydroxy-6-methoxy-1,2,3,4-tetrahydronaphthalene-2-carboxamide]: the inhibition at 0.412 µM was found to be 32%.

On to `O=C(NO)C1CCc2ccc(Oc3ccc(Cl)cc3)cc2C1` (stereo not drawn) [Compound I-11, 7-(4-chlorophenoxy)-N-hydroxy-1,2,3,4-tetrahydronaphthalene-2-carboxamide], for which the inhibition at 0.412 µM was 62%.

Take `O=C(NO)C1CCc2ccc(Oc3ccncc3)cc2C1` (stereo not drawn) [Compound I-12, N-hydroxy-7-(pyridin-4-yloxy)-1,2,3,4-tetrahydronaphthalene-2-carboxamide]: the inhibition at 0.412 µM came to 61%.

For `O=C(NO)C1CCc2cc(Oc3ccnc(NC(=O)C4CC4)c3)ccc2C1` (stereo not drawn) [Compound I-13, 6-({2-[(cyclopropylcarbonyl)amino]pyridin-4-yl}oxy)-N-hydroxy-1,2,3,4-tetrahydronaphthalene-2-carboxamide], the inhibition at 0.412 µM came to 74%.

Turning to `O=C1CCc2c(Oc3ccc4c(c3)CCC(C(=O)NO)C4)ccnc2N1` (stereo not drawn) [Compound I-14, N-hydroxy-6-[(7-oxo-5,6,7,8-tetrahydro-1,8-naphthyridin-4-yl)oxy]-1,2,3,4-tetrahydronaphthalene-2-carboxamide], the inhibition at 0.412 µM turned out to be 67%.

As for `COc1cccc2c1CC(C(=O)NO)CC2` (stereo not drawn) [Compound I-15, N-hydroxy-8-methoxy-1,2,3,4-tetrahydronaphthalene-2-carboxamide], the inhibition at 0.412 µM was 25%.

On to `O=C(NO)C1CCc2cccc(Oc3ccnc(NC(=O)C4CC4)c3)c2C1` (stereo not drawn) [Compound I-16, 8-({2-[(cyclopropylcarbonyl)amino]pyridin-4-yl}oxy)-N-hydroxy-1,2,3,4-tetrahydronaphthalene-2-carboxamide], for which the inhibition at 0.412 µM was determined as 13%.

Take `O=C(NO)C1CCc2ccc(-c3ccncc3)cc2C1` (stereo not drawn) [Compound I-17, N-hydroxy-7-pyridin-4-yl-1,2,3,4-tetrahydronaphthalene-2-carboxamide]: the inhibition at 0.412 µM stood at 60%.

Consider `CC1(C(=O)Nc2ccc3c(c2)CC(C(=O)NO)CC3)CCNCC1` (stereo not drawn) [Compound I-18, N-{7-[(hydroxyamino)carbonyl]-5,6,7,8-tetrahydronaphthalen-2-yl}-4-methylpiperidine-4-carboxamide], for which the inhibition at 0.412 µM stood at 54%.

Take `O=C(NO)C1CCc2cc(Oc3cccc(Cl)c3)ccc2C1` (stereo not drawn) [Compound I-19, 6-(3-chlorophenoxy)-N-hydroxy-1,2,3,4-tetrahydronaphthalene-2-carboxamide]: the inhibition at 0.412 µM worked out at 23%.

Take `CC(C)(C)OC(=O)Nc1ccc2c(c1)CC(C(=O)NO)CC2` (stereo not drawn) [Compound I-20, tert-butyl {7-[(hydroxyamino)carbonyl]-5,6,7,8-tetrahydronaphthalen-2-yl}carbamate]: the inhibition at 0.412 µM is 61%.

Turning to `CC(=O)Nc1cccc(Oc2ccc3c(c2)CC(C(=O)NO)CC3)c1` (stereo not drawn) [Compound I-21, 7-[3-(acetylamino)phenoxy]-N-hydroxy-1,2,3,4-tetrahydronaphthalene-2-carboxamide], the inhibition at 0.412 µM was 80%.

Consider `O=C(NO)C1CCc2ccc(NC(=O)C3CC3)cc2C1` (stereo not drawn) [Compound I-22, 7-[(cyclopropylcarbonyl)amino]-N-hydroxy-1,2,3,4-tetrahydronaphthalene-2-carboxamide], for which the inhibition at 0.412 µM came out at 72%.

In the case of `O=C(NO)C1CCc2ccc(Nc3ccccc3)cc2C1` (stereo not drawn) [Compound I-23, 7-anilino-N-hydroxy-1,2,3,4-tetrahydronaphthalene-2-carboxamide], the inhibition at 0.412 µM is 70%.

With `CC(=O)Nc1cccc(-c2ccc3c(c2)CC(C(=O)NO)CC3)c1` (stereo not drawn) [Compound I-24, 7-[3-(acetylamino)phenyl]-N-hydroxy-1,2,3,4-tetrahydronaphthalene-2-carboxamide], the inhibition at 0.412 µM is 86%.

For `O=C(NO)C1CCc2cc(Oc3ccccc3)ccc2C1` (stereo not drawn) [Compound I-25, N-hydroxy-6-phenoxy-1,2,3,4-tetrahydronaphthalene-2-carboxamide], the inhibition at 0.412 µM came out at 27%.

Turning to `O=C(NO)C1CCc2ccc(Nc3cccc(Cl)c3)cc2C1` (stereo not drawn) [Compound I-26, 7-[(3-chlorophenyl)amino]-N-hydroxy-1,2,3,4-tetrahydronaphthalene-2-carboxamide], the inhibition at 0.412 µM is 71%.

Consider `O=C(NO)C1CCc2cc(Oc3ccncc3)ccc2C1` (stereo not drawn) [Compound I-27, N-hydroxy-6-(pyridin-4-yloxy)-1,2,3,4-tetrahydronaphthalene-2-carboxamide], for which the inhibition at 0.412 µM is 53%.

Take `O=C(NO)C1CCc2ccc(NS(=O)(=O)c3ccccc3)cc2C1` (stereo not drawn) [Compound I-28, N-hydroxy-7-[(phenylsulfonyl)amino]-1,2,3,4-tetrahydronaphthalene-2-carboxamide]: the inhibition at 0.412 µM amounted to 65%.

As for `COc1ccc(C(=O)Nc2ccc3c(c2)CC(C(=O)NO)CC3)cc1` (stereo not drawn) [Compound I-29, N-hydroxy-7-[(4-methoxybenzoyl)amino]-1,2,3,4-tetrahydronaphthalene-2-carboxamide], the inhibition at 0.412 µM was determined as 81%.

Turning to `O=C(Nc1ccccc1)Nc1ccc2c(c1)CC(C(=O)NO)CC2` (stereo not drawn) [Compound I-30, 7-[(Anilinocarbonyl)amino]-N-hydroxy-1,2,3,4-tetrahydronaphthalene-2-carboxamide], the inhibition at 0.412 µM came out at 86%.
